The text below walks through data of patent US12630512B2, “Agents for differentiating stem cells and treating cancer” (Minerva Biotechnologies Corporation, priority 2017, dated 2026).

Series [1] deals with human naïve state stem cells. Briefly: Stem cell drug screen on naïve state stem cells (pluripotency, proliferation, differentiation). It is filed as cell-based. The following applies: first panel (FIGS. 2, 7-10); small molecules 6 uM; 3 days; with or without NME7AB. How it is done: (§1) The stem cell screening assay, was performed in both the presence and absence of the stem cell growth factors: NME7AB for growing naïve stem cells or FGF for growing primed stem cells. If the cognate growth factor was present, then the biological or small molecule would have to compete away the growth factor to get an effect. Therefore, we expected to see more of an effect when the growth factor, FGF for primed stem cells or NME7AB or NME1 dimers for naïve stem cells, was absent. The effect of the compounds on stem cells was visually determined and compounds were ranked 0-4, with 4 being the greatest effect and 0 being no observable effect. The major effect that was observed was a change from pluripotent stem cell morphology, which is a cobblestone pattern of small round cells with a large nucleus to cytoplasm ratio, to that of differentiating stem cells, which are elongated, large and flattened cells with a smaller nucleus to cytoplasm ratio. […] The compounds were added to a final concentration of 6 uM to either naïve state stem cells or primed state stem cells. In this particular case, the naïve state stem cells were maintained in a naïve state by culturing in a media containing NME7AB or NME1 dimers. However, other methods such as 2i and 5i (Silva et al., 2008, Nichols and Smith, 2009, Theunissen et al., 2014)] can be used to maintain stem cells in a more naïve state. In this case primed state stem cells were cultured in bFGF over a layer of MEFs, although it is known that any bFGF containing media will maintain stem cells in the primed state.
(§2) Percent inhibition of cancer cell migration was performed in a wound healing assay. The percent area that the invading cancer cells occupied, in the presence of a drug candidate compared to the controls, was quantified by Image J cell software which enables cell counting from photographs. IC50's were calculated by performing migration experiments at several compound concentrations and then applying Hill's equation. Inhibition of cancer cell proliferation was quantified by automated cell counting in the presence or absence of a drug candidate. Here, the inhibition of cancer cell proliferation was scored 1 if proliferation was inhibited by 25%, 2 if inhibited by […] and 4 for the highest degree of inhibition of proliferation, and 0 for the lowest. The effect of the drug candidates on stem cell pluripotency or proliferation was scored by eye, based on cell morphology and cell density, with 0 being no change in morphology or cell number and 4 being the most profound effect, with the stem cells taking on the morphology of a differentiating cell, along with much fewer cells indicative of inhibition of proliferation. As an example, FIGS. 30A-30F show photographs of naïve stem cell, primed stem cell and fibroblast controls. FIGS. 31A-31F show the effect of compounds of the invention on naïve state stem cells, where the number of ‘+’ signs indicates the score from 0-4 of ability of compound to inhibit pluripotency, proliferation of naïve stem cells or ability to induce their differentiation. […] FIGS. 36-44 and 65-87 show photographs and IC50 graphs of the compounds of the invention, inhibiting cancer cell migration and invasion. Cancer cell migration is a hallmark of metastatic cancer.
Stem cells whether embryonic or induced pluripotent stem (iPS) cells were cultured in a minimal, serum-free media that contained human recombinant NME7AB at a concentration of 2-32 nM wherein 4-8 nM is preferred and 4 nM is more preferred. To facilitate surface attachment, cell culture plates were coated with an anti-MUC1* monoclonal antibody called MN-C3 or C3 or MN-C8 at a concentration of 2-100 μg/mL coating solution, wherein 3-50 ug/mL is preferred and 6-12.5 ug/mL is more preferred. In these experiments, 12.5 ug/mL of MN-C3 was used. Antibody coated plates were incubated at 4 degrees C. overnight prior to plating stem cells. A Rho kinase I inhibitor was added to enhance surface attachment. […]

For series [2], the system named is cancer cells. The settings on record: in vitro; stated as previously shown; cited from earlier work.
The subject of series [3] is cancer cells. The following applies: NME7AB-driven transformation; stated as previously shown; cited from earlier work.
For series [4], the system named is human primed state stem cells. Briefly: Stem cell drug screen on primed state stem cells (pluripotency, proliferation, differentiation). In kind it is cell-based. The following applies: for induction of differentiation / effect on growth of primed state stem cells: treated for 3 days, JQ1 at 500 nM or 1 uM (FIGS. 11-12). How it is done: as §1, §2
Stem cells whether embryonic or induced pluripotent stem (iPS) cells were cultured in a minimal, serum-free media that contained human recombinant bFGF at a concentration of 8 ng/mL. The stem cells were plated over a layer of inactivated mouse embryonic fibroblasts, aka MEFs, which secrete additional uncharacterized growth factors and cytokines.
Human naïve state and primed stem cells were cultured in parallel for at least 5 passages to guarantee normal differentiation-free growth. The stem cells were plated in 12-well cell culture plates with 50,000 cells per well. Cells were cultured in their respective media, either bFGF media or NME7AB media for 24 hours. […]

For a further series, the system named is human fibroblasts. Briefly: Effect on fibroblasts as surrogate for normal cells. It is filed as cell-based. The following applies: 500 nM final concentration (FIG. 24). From the text: However, fibroblasts are more differentiated than stem cells but are able to self-replicate for defined periods of time. We tested selected compounds of the invention to determine if these compounds were just cytotoxic or if they selectively affected stem cells and, importantly, cancer cells, but not normal, healthy cells. Here, we used fibroblasts as a surrogate for normal cells. […] […] Each compound was scored for its effect on fibroblast proliferation where “+” indicates 25% inhibition of fibroblast growth, “++” 50% inhibition and “+++” 75% inhibition of growth.

Series [5] has as its system fibronectin, vimentin, NF1. Briefly: RT-PCR of markers of differentiation in naïve stem cells. In kind it is cell-based, human. From the text: The genes whose expression increased as a result of treatment with the compounds of the invention, in a concentration dependent manner, are fibronectin and vimentin, which both increase as stem cells initiate differentiation and NF1, which is one of the first genes to increase when stem cells begin to differentiate down the neural lineage. […] Thus, compounds of the invention that induce markers of differentiation are useful for the treatment of cancers, because cancer cells, by definition, have de-differentiated, which allows them to continually self-replicate. […] Expression of metastatic marker E-cadherin was reduced and expression of differentiation markers fibronectin, vimentin and NF1 were increased.

The test system of series [6] is human naïve state stem cells. Briefly: Stem cell drug screen on naïve state stem cells (pluripotency, proliferation, differentiation). The following applies: JQ1 at 500 nM or 1 uM, naïve cells from NME7AB or NME1 dimers (FIGS. 13-16). In kind it is cell-based.

`COC(=O)c1ccc(C2c3[nH]c4ccccc4c3CCN2C(=O)c2cccc(Cl)c2)cc1` (centres unmarked) [MN0642]: the “induced differentiation / inhibited pluripotency and growth of naïve state stem cells” value in series [1] is “induced differentiation”. Besides, in the series on cancer cells [2], the “inhibition of cancer cell growth” value is reported as “inhibit the growth of cancer cells in vitro”.

Take “FLR peptide: synthetic peptide corresponding to the extracellular domain of MUC1*, FLR also known as PSMGFR (SEQ ID NO:3) (GTINVHDVETQFNQYKTEAASRYNLTISDVSVSDVPFPFSAQSGA; the extracellular domain of Native Primary Sequence of the MUC1 Growth Factor Receptor (nat-PSMGFR - an example of "PSMGFR"))”: in series [1], the “induced differentiation / inhibited pluripotency and growth of naïve state stem cells” value is recorded as “induced differentiation”. In the series on cancer cells [3], the “inhibition of the transition of regular cancer cells to metastatic cancer cells” value is “inhibit the transition”.

As for `CCCCNC(=O)N1CCc2c([nH]c3ccccc23)C1C(C)c1ccccc1` (centres unmarked) [MN1130], in series [1], the “induced differentiation / inhibited pluripotency and growth of naïve state stem cells” value is reported as “induced differentiation”. The “effect on primed stem cells” value in series [4] (first panel (FIGS. 2-6), small molecules 6 uM, 3 days, with or without FGF) is listed as “modest effect”.

On to `Cc1sc2c(c1C)C(c1ccc(Cl)cc1)=N[C@@H](CC(=O)OC(C)(C)C)c1nnc(C)n1-2` [JQ1(+), reference compound], for which the “effect on the size of primed stem cell colonies” value in series [4] (treated for 3 days (FIG. 11)) is given as “modest effect”. Further, the “induction of differentiation / effect on growth of primed state stem cells” value in series [4] was “None of these agents appeared to induce differentiation”; in series [4] (listed as JQI), “not primed stem cell growth”. Also, the “effect on human fibroblasts” value with human fibroblasts is “same effect on fibroblasts as it does on primed state stem cells”. Further, the “up-regulation of markers of differentiation in stem cells” value in series [5] was “did not cause up-regulation of markers of differentiation”. Further, the “effect on naïve state stem cell differentiation and growth” value in series [6] was “dramatically induced differentiation of naïve state stem cells and inhibited their growth”; in series [6] (listed as JQI) it was “inhibitory effect”.

As for `Cc1[nH]c(/C=C2\C(=O)Nc3ccc(S(=O)(=O)N(C)c4cccc(Cl)c4)cc32)c(C)c1C(=O)N1CCN(C)CC1` [SU11274], the “up-regulation of markers of differentiation in stem cells” value in series [5] is on record as “did not cause up-regulation of markers of differentiation”.
